Here are results for 38 molecules from ChEMBL document CHEMBL1131037, “Structure-based design, synthesis, and biological evaluation of irreversible human rhinovirus 3C protease inhibitors. 2. Peptide structure-activity studies” (J Med Chem, 1998).

The subject of test [1] is rhinovirus B14. The experiment in a line: Cytotoxic activity against HRV-14 in cell culture. Type of test: functional, rhinovirus 14. The following applies: Rhinovirus B.
The target of test [2] is T1, Human rhinovirus A protease (Human rhinovirus sp.) (UniProt Q4U254).
T1 sequence (whole entry): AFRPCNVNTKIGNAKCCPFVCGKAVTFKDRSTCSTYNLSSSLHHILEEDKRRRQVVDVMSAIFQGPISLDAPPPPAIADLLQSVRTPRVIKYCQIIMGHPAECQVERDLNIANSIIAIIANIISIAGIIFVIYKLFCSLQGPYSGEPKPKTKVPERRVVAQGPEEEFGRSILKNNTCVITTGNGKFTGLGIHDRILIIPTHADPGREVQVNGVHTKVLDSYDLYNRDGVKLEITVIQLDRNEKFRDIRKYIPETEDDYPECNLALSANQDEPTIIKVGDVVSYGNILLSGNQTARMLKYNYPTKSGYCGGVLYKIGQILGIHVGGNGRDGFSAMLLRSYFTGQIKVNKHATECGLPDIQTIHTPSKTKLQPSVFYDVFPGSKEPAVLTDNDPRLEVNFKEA
The experiment in a line: Binding affinity on human Rhinovirus 3C protease (rhinovirus serotype 14).

Test [3] deals with rhinovirus B14. The test can be described thus: Antiviral activity against HRV-14 in cell culture. Format: functional, organism-based. To be noted: Rhinovirus B.

Structures are written as SMILES.

`CCOC(=O)/C=C/[C@H](CCC(N)=O)NC(=O)[C@H](Cc1ccccc1)NC(=O)[C@H](CC(C)C)NC(=O)c1ccc(Oc2ccccc2)cc1`: the CC50 with rhinovirus B14 [1] was more than 320 µM. In addition, the K obs / 1 in test [2] turned out to be 8000 M⁻¹ s⁻¹. Besides, in the test on rhinovirus B14 [3], the EC50 was determined as 5.2 µM.
Taken in the same sequence, the figures for `CCOC(=O)/C=C/[C@H](CCC(N)=O)NC(=O)[C@H](Cc1nccn1C)NC(=O)[C@H](CC(C)C)NC(=O)OCc1ccccc1` were more than 320 µM, 8900 M⁻¹ s⁻¹ and 10 µM.
Taken in the same sequence, the figures for `CCOC(=O)/C=C/[C@H](CCC(=O)N(C)C)NC(=O)[C@H](Cc1ccccc1)NC(=O)[C@H](CC(C)C)NC(=O)OCc1ccccc1` were more than 100 µM, 60 M⁻¹ s⁻¹ and 4 µM.
In the same order, the values of `CCOC(=O)/C=C/[C@H](CCC(N)=O)NC(=O)[C@H](Cc1ccccc1)NC(=O)[C@H](CC(C)C)NC(=O)OCc1ccccc1C` are more than 100 µM, 41800 M⁻¹ s⁻¹ and 1 µM.
The molecule `CCOC(=O)/C=C/[C@H](CCC(N)=O)NC(=O)[C@H](Cc1ccccc1)NC(=O)[C@H](CC(C)C)NC(=O)OCc1ccccc1Cl` showed a CC50 in the test with rhinovirus B14 [1] of more than 100 µM. In addition, the K obs / 1 in test [2] stood at 19000 M⁻¹ s⁻¹. The EC50 in the test with rhinovirus B14 [3] came out at 0.63 µM.
Taken in the same sequence, the figures for `CCOC(=O)/C=C/[C@H](CCC(N)=O)NC(=O)[C@H](Cc1ccccc1)NC(=O)[C@@H](NC(=O)OCc1ccccc1)C(C)(C)CO` were more than 100 µM, 40000 M⁻¹ s⁻¹ and 1.3 µM.
In the same order, the values of `CCOC(=O)/C=C/[C@H](CCC(N)=O)NC(=O)[C@H](Cc1ccccc1)NC(=O)[C@H](CC(C)C)NC(=O)OC(C)(C)C` are more than 100 µM, 700 M⁻¹ s⁻¹ and 4.5 µM.
Taken in the same sequence, the figures for `CCOC(=O)/C=C/[C@H](CCC(N)=O)NC(=O)[C@H](Cc1ccc(COC)cc1)NC(=O)[C@H](CC(C)C)NC(=O)OCc1ccccc1` were more than 320 µM, 7100 M⁻¹ s⁻¹ and 39 µM.
For the molecule `CCOC(=O)/C=C/[C@H](CCC(N)=O)NC(=O)[C@H](Cc1ccccc1)NC(=O)[C@@H](NC(=O)OCc1ccccc1)C(C)(C)C`, the CC50 in the test on rhinovirus B14 [1] stood at 178 µM. Further, in test [2], the K obs / 1 was found to be 39800 M⁻¹ s⁻¹. The EC50 in the test on rhinovirus B14 [3] is 0.32 µM.
In the same order, the values of `CCOC(=O)/C=C/[C@H](CCC(N)=O)NC(=O)[C@H](Cc1ccccc1)NC(=O)[C@H](CSc1ccccc1)NC(=O)OCc1ccccc1` are more than 320 µM, 141000 M⁻¹ s⁻¹ and 0.12 µM.
Regarding `CCOC(=O)/C=C/[C@H](CCC(C)=O)NC(=O)[C@H](Cc1ccccc1)NC(=O)[C@H](CC(C)C)NC(=O)OCc1ccccc1`, the CC50 in the test on rhinovirus B14 [1] is more than 100 µM. In test [2], this molecule had a K obs / 1 of 1400 M⁻¹ s⁻¹. A half-maximal effect in the test on rhinovirus B14 [3] (EC50) was put at 1.6 µM.
Turning to `CCOC(=O)/C=C/[C@H](CCC(=O)NC(c1ccccc1)(c1ccccc1)c1ccccc1)NC(=O)[C@H](Cc1ccccc1)NC(=O)[C@H](CC(C)C)NC(=O)OCc1ccccc1`, the CC50 with rhinovirus B14 [1] is more than 320 µM. Moreover, in test [2], the K obs / 1 came to 0 M⁻¹ s⁻¹. Further, a half-maximal response in the test on rhinovirus B14 [3] (EC50) required 100 µM.
In the same order, the values of `CCOC(=O)/C=C/[C@H](CCC(N)=O)NC(=O)[C@H](Cc1ccc(O)cc1)NC(=O)[C@H](CC(C)C)NC(=O)OCc1ccccc1` are more than 320 µM, 11300 M⁻¹ s⁻¹ and 5.3 µM.
The molecule `CCOC(=O)/C=C/[C@H](CCC(=O)O)NC(=O)[C@H](Cc1ccccc1)NC(=O)[C@H](CC(C)C)NC(=O)OCc1ccccc1` came in with a CC50 in the test with rhinovirus B14 [1] of more than 100 µM. In test [2], the K obs / 1 is 500 M⁻¹ s⁻¹. The molecule further came in with an EC50 in the test with rhinovirus B14 [3] of 14 µM.
Taken in the same sequence, the figures for `CCOC(=O)/C=C/[C@H](CCC(N)=O)NC(=O)[C@H](Cc1ccccc1)NC(=O)[C@H](CC(C)C)NC(=O)[C@H](C)NC(C)=O` were more than 100 µM, 43400 M⁻¹ s⁻¹ and 20 µM.
Molecule `CCOC(=O)/C=C/[C@H](CCC(N)=O)NC(=O)[C@H](Cc1ccc(OC(C)=O)cc1)NC(=O)[C@H](CC(C)C)NC(=O)OCc1ccccc1` yielded a CC50 with rhinovirus B14 [1] of more than 320 µM. This molecule also had a K obs / 1 in test [2] of 1200 M⁻¹ s⁻¹. In the test with rhinovirus B14 [3], this molecule gave an EC50 of 11 µM.
In the same order, the values of `CCOC(=O)/C=C/[C@H](CCC(N)=O)NC(=O)[C@H](Cc1ccccc1)NC(=O)[C@H](CC(C)C)NC(=O)C(C)(C)C` are more than 100 µM, 8200 M⁻¹ s⁻¹ and 1.8 µM.
In the same order, the values of `CCOC(=O)/C=C/[C@H](CCC(N)=O)NC(=O)[C@H](Cc1ccccc1)NC(=O)[C@H](CC(C)C)NC(=O)[C@@H](NC(C)=O)[C@@H](C)O` are more than 100 µM, 4600 M⁻¹ s⁻¹ and more than 100 µM.
Take `CCOC(=O)/C=C/[C@H](CCC(N)=O)NC(=O)[C@H](Cc1ccccc1)NC(=O)[C@H](CC(C)C)NC(=O)CCO`: in the test on rhinovirus B14 [1], the 50% cytotoxic concentration (CC50) is more than 320 µM. The K obs / 1 in test [2] turned out to be 4500 M⁻¹ s⁻¹. A half-maximal response with rhinovirus B14 [3] (EC50) required 19 µM.
In the same order, the values of `CCOC(=O)/C=C/[C@H](CCC(N)=O)NC(=O)[C@H](Cc1ccccc1)NC(=O)[C@H](CSCc1ccccc1)NC(=O)OCc1ccccc1` are more than 100 µM, 97000 M⁻¹ s⁻¹ and 0.2 µM.
Taken in the same sequence, the figures for `CCOC(=O)/C=C/[C@H](CCC(N)=O)NC(=O)[C@H](Cc1ccccc1)NC(=O)[C@H](CC(C)C)NC(=O)OC` were more than 320 µM, 9100 M⁻¹ s⁻¹ and 1.3 µM.
In the same order, the values of `CCOC(=O)/C=C/[C@H](CCC(N)=O)NC(=O)[C@H](C)NC(=O)[C@H](CC(C)C)NC(=O)OCc1ccccc1` are more than 320 µM, 1300 M⁻¹ s⁻¹ and 20 µM.
Turning to `CCOC(=O)/C=C/[C@H](CCC(N)=O)NC(=O)[C@H](Cc1ccc(C#N)cc1)NC(=O)[C@H](CC(C)C)NC(=O)OCc1ccccc1`, in the test on rhinovirus B14 [1], the CC50 was more than 320 µM. In test [2], this molecule had a K obs / 1 of 10800 M⁻¹ s⁻¹. This molecule displayed an EC50 with rhinovirus B14 [3] of 5.6 µM.
In the same order, the values of `CCOC(=O)/C=C/[C@H](CCC(N)=O)NC(=O)[C@H](Cc1ccc(OP(=O)(O)O)cc1)NC(=O)[C@H](CC(C)C)NC(=O)OCc1ccccc1` are more than 320 µM, 1200 M⁻¹ s⁻¹ and 14 µM.
In the same order, the values of `CCOC(=O)/C=C/[C@H](CCC(N)=O)NC(=O)[C@H](Cc1ccccc1)NC(=O)[C@@H](NC(=O)OCc1ccccc1)[C@H](C)SC(C)C` are more than 100 µM, 40000 M⁻¹ s⁻¹ and 10 µM.
In the same order, the values of `CCOC(=O)/C=C/[C@H](CNC(C)=O)NC(=O)[C@H](Cc1ccccc1)NC(=O)[C@H](CC(C)C)NC(=O)OCc1ccccc1` are more than 320 µM, 800 M⁻¹ s⁻¹ and 2.2 µM.
In turn, `CCOC(=O)/C=C/[C@H](CCC(N)=O)NC(=O)[C@H](Cc1ccccc1)NC(=O)[C@H](CC1CCCCC1)NC(=O)OCc1ccccc1` gave a CC50 in the test on rhinovirus B14 [1] of more than 320 µM. In addition, the K obs / 1 in test [2] came out at 39000 M⁻¹ s⁻¹. For the same molecule, it took 1.2 µM to reach a half-maximal effect with rhinovirus B14 [3] (EC50).
Taken in the same sequence, the figures for `CCOC(=O)/C=C/[C@H](CO)NC(=O)[C@H](Cc1ccccc1)NC(=O)[C@H](CC(C)C)NC(=O)OCc1ccccc1` were 190 µM, 0 M⁻¹ s⁻¹ and more than 190 µM.
In the same order, the values of `CCOC(=O)/C=C/[C@H](CCC(C)O)NC(=O)[C@H](Cc1ccccc1)NC(=O)[C@H](CC(C)C)NC(=O)OCc1ccccc1` (some centres undefined) are more than 100 µM, 0 M⁻¹ s⁻¹ and more than 100 µM.
Taken in the same sequence, the figures for `CCOC(=O)/C=C/[C@H](CCC(N)=O)NC(=O)[C@H](Cc1ccccc1)NC(=O)[C@H](CC(C)C)NC(=O)c1ccc2ccccc2c1` were more than 320 µM, 21000 M⁻¹ s⁻¹ and 1 µM.
Take `CCOC(=O)/C=C/[C@H](CCC(N)=O)NC(=O)[C@H](Cc1ccccc1)NC(=O)[C@H](Cc1ccccc1)NC(=O)OCc1ccccc1`: in the test on rhinovirus B14 [1], the CC50 was more than 320 µM. In addition, the K obs / 1 in test [2] turned out to be 162000 M⁻¹ s⁻¹. For the same molecule, the EC50 in the test with rhinovirus B14 [3] stood at 0.56 µM.
Taken in the same sequence, the figures for `CCOC(=O)/C=C/[C@H](CCC(N)=O)NC(=O)[C@H](Cc1ccc(C(N)=O)cc1)NC(=O)[C@H](CC(C)C)NC(=O)OCc1ccccc1` were 177 µM, 9600 M⁻¹ s⁻¹ and more than 177 µM.
In the same order, the values of `CCOC(=O)/C=C/[C@H](CCC(N)=O)NC(=O)[C@H](CC(C)C)NC(=O)[C@H](CC(C)C)NC(=O)OCc1ccccc1` are more than 320 µM, 2300 M⁻¹ s⁻¹ and 5.4 µM.
In the same order, the values of `CCOC(=O)/C=C/[C@H](CC[S+](C)[O-])NC(=O)[C@H](Cc1ccccc1)NC(=O)[C@H](CC(C)C)NC(=O)OCc1ccccc1` (some centres undefined) are more than 100 µM, 2200 M⁻¹ s⁻¹ and 1.6 µM.
`CCOC(=O)/C=C/[C@H](CCC(N)=O)NC(=O)[C@H](Cc1ccccc1)NC(=O)CNC(=O)OCc1ccccc1`: in the test with rhinovirus B14 [1], the CC50 is more than 320 µM. The molecule also returned a K obs / 1 in test [2] of 3800 M⁻¹ s⁻¹. The same molecule registered an EC50 in the test with rhinovirus B14 [3] of 5.6 µM.
Taken in the same sequence, the figures for `CCOC(=O)/C=C/[C@H](CCC(N)=O)NC(=O)[C@H](Cc1ccccc1)NC(=O)[C@H](CCc1ccccc1)NC(=O)OCc1ccccc1` were more than 320 µM, 57000 M⁻¹ s⁻¹ and 0.25 µM.
`CCOC(=O)/C=C/[C@H](CCC(N)=O)NC(=O)[C@H](Cc1ccccc1)NC(=O)[C@H](CC(C)C)NC(=O)C(C)C` showed a CC50 in the test with rhinovirus B14 [1] of more than 320 µM. This molecule also showed a K obs / 1 in test [2] of 18800 M⁻¹ s⁻¹. In the test with rhinovirus B14 [3], this molecule registered an EC50 of 1 µM.
Taken in the same sequence, the figures for `CCOC(=O)/C=C/[C@H](CCC(N)=O)NC(=O)[C@H](Cc1ccccc1)NC(=O)[C@H](CC(=O)O)NC(=O)OCc1ccccc1` were more than 320 µM, 35000 M⁻¹ s⁻¹ and 2.4 µM.
